Consider five compounds from patent US11518746B2, “Nitrogen ring linked deoxyuridine triphosphatase inhibitors” (CV6 Therapeutics (NI) Limited, priority 2016, dated 2022).

For assay [1], the system named is colorectal (HCT116), breast (MCF-7) and non-small cell lung (H1299, A549, H358 and H460) cell line models. Kind of assay: Colony forming assay. Type of assay: cell-based. Conditions: increasing concentrations of FUdR between 0.5 and 2.5 μmol/L. As to the method: Colony forming assay showing the ability of colon (SW620, HCT116), non-small cell lung (A549, H460, H1299 and H358) and breast (MCF7) cancer cells to survive and proliferate following transient 24 hour exposure to test compounds, FUdR and combinations are determined. Specifically, cells are seeded at densities between 50 and 100 cells/well in 24-well plates. Twenty-four hours later, cells are treated with increasing concentrations of a rtest compound, a fixed dose of FUdR and combinations of these. After 24 hours, drug is removed, cells are rinsed and allowed to outgrow for 10-14 days. At the conclusion of the outgrowth, cells are fixed in 60% ice cold methanol and stained with 0.1% crystal violet, scanned and counted. Data is presented as percentage of untreated controls (mean±SD). Fraction affected and combination indexes are calculated according to the method of Chou and Talalay where <1 is indicative of a synergistic drug interaction.
Colony forming assays are performed to evaluate the effectiveness of test compounds alone and in combination with the fluoropyrimidine thymidylate synthase (TS) inhibitor fluorodeoxyuridine (FUdR) at reducing cancer cell viability in colorectal (HCT116), breast (MCF-7) and non-small cell lung (H1299, A549, H358 and H460) cell line models. […]

The subject of assay [2] is colorectal (HCT116 and SW620) cell line models. Kind of assay: MTS growth inhibition assay. In kind it is cell-based. Conditions: increasing concentrations of 5-FU between 0 and 100 μmol/L. As for the experimental part:
The Cell Titer AQueous MTS assay (Promega) is carried out according to the manufacturers guidelines. […] The combination effect is determined by the combination index (CI) method utilizing Calcusyn software (Biosoft, Ferguson, Mo.). Fraction affected (FA) is calculated from the percent growth inhibition: FA=[…]. CI values <1, synergism; 1-1.2, additive and >1.2, antagonism.
Test compounds are evaluated for their antitumor activity in colorectal cancer cells using the MTS growth inhibition assay. HCT116 and SW620 cells are exposed to increasing concentrations of each agent for 72 hours and growth inhibition is directly compared to vehicle-treated controls. The NSCLC cell lines A549 and H1299 are exposed to increasing concentrations of each agent for 72 hours and growth inhibition is directly compared to vehicle-treated controls.
MTS growth inhibition assays are performed to evaluate the effectiveness of the test compounds alone and in combination with the fluoropyrimidine thymidylate synthase (TS) inhibitor 5-fluorouracil (5-FU) at inhibiting the growth of colorectal (HCT116 and SW620) cell line models. […] Simultaneous treatment with increasing concentrations of 5-FU and a test compound at fixed concentrations of 25 μmol/L is determined.
For orientation: Tetrazolium assays rely on reduction of a dye to a coloured formazan, in cell work by metabolically active cells.

Assay [3] addresses T1, Recombinant human deoxyuridine nucleotidohydrolase (dUTPase) (Homo sapiens, UniProt P33316).
T1 construct: made in house
T1 sequence (P33316 1-164 isoform P33316-2): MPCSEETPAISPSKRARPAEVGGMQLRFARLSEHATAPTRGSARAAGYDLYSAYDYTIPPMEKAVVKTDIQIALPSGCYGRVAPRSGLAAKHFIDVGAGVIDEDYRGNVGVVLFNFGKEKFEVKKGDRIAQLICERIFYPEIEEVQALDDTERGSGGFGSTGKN
Description: dUTPase inhibition, fluorescence-based DNA polymerase assay. Type of assay: biochemical. The note with it: for % relative inhibition vs. positive control: mean over three concentrations, typically 100, 50 and 25 μmol/L, compared to in-run positive control. The text has this:
Recombinant human deoxyuridine nucleotidohydrolase (dUTPase) is expressed and purified as described in Ladner R D, Carr S A, Huddleston M J, McNulty D E, Caradonna S J. J Biol Chem. 1996 Mar. 29; 271(13):7752-7. All drugs stocks are aliquoted and diluted as appropriate prior to use. The oligonucleotide primer, templates and fluorophore- and quencher-labeled detection probes are synthesized by Integrated DNA Technologies (Coralville, Iowa), subjected to polyacrylamide gel electrophoresis purification and reconstituted in Omnipur sterile nuclease-free water (EMD Chemicals USA, Gibbstown N.J.) at a stock concentration of 100 μmol/L. The two non-emissive (dark) quenching molecules incorporated into the detection probes include the Iowa black fluorescein quencher (IBFQ; absorption max 531 nm) and ZEN (non-abbreviation; absorption max 532 nm). The fluorescent label utilized is 6-FAM (5′-carboxyfluorescein; excitation max.=494 nm, emission max.=520 nm). Probes are further diluted to a working stock of 10 μmol/L and aliquoted to avoid repeated freeze/thaw cycles. AmpliTaq Gold DNA Polymerase, GeneAmp 10×PCR Buffer 2, MgCl2 and MicroAmp Optical 96-well Reaction Plates are purchased from Applied Biosystems (Carlsbad, Calif.). dNTPs are purchased individually at stock concentrations of 100 mmol/L from New England Biolabs at HPLC-certified >99% purity (Ipswich, Mass.).
Reaction mixtures contained primer, probe and template at an equimolar final concentration of 0.4 μmol/L. Magnesium chloride (MgCl2) is included at a final concentration of 2 mmol/L. Non-limiting dNTPs are included in the reaction mix in excess at a final concentration of 100 μmol/L (dUTP/dTTP is excluded). AmpliTaq Gold DNA polymerase is added at 0.875 U/reaction, 2.5 μl of 10×PCR buffer 2 added and nuclease-free ddH2O added to a final reaction volume of 25 μl. […] Thermal profiling and fluorescence detection is performed using a customized thermal program on board a Roche Lightcycler LC480 Instrument II. […] Raw fluorescence spectra for 6-FAM is measured at specified time intervals to follow assay progression on board a Roche LightCycler 480 Software Version 1.5 and exported and analyzed in Microsoft Excel (Microsoft, Redmond Wash.) and Prism (GraphPad Software, La Jolla Calif.). Fluorescence values for blank reactions (limiting dNTP omitted) are subtracted to give normalized fluorescence units (NFU) to account for background fluorescence.
Test compounds are screened in a fluorescence-based assay. […] This displacement effectively disrupts the Förster resonance energy transfer (FRET) and the resulting fluorescence detected upon excitation is directly proportional to the amount of the dUTP available in the assay for incorporation. […]

As to `O=c1[nH]c(=O)n([C@H]2C[C@H](O)[C@@H](CO)O2)cc1F` [FUdR, fluorodeoxyuridine], the colonies formed entry in assay [1] was “dose-dependent decreases in colonies formed”.

In the case of `O=c1[nH]cc(F)c(=O)[nH]1` [Example 5-FU, 5-fluorouracil], the growth inhibition entry in assay [2] is “dose-dependent increases in growth inhibition”.

As for `CC(c1ccc(F)c(OCC2CC2)c1)C1CCCN1S(=O)(=O)CCCNC1CCC(=O)NC1=O` (stereo not drawn) [Example 82, 3-((3-((2-(1-(3-(cyclopropylmethoxy)-4-fluorophenyl)ethyl)pyrrolidin-1-yl)sulfonyl)propyl)amino)piperidine-2,6-dione], in assay [3], the “% relative inhibition vs. positive control” value came to 13%.

For the compound `O=C1CN(CCCC(=O)N2CCC[C@H]2C(O)(c2ccccc2)c2ccccc2)C(=O)N1` [Example 79, (5)-1-(4-(2-(hydroxydiphenylmethyl)pyrrolidin-1-yl)-4-oxobutyl)imidazolidine-2,4-dione], in assay [3], the IC50 was found to be 1000 nM and the “% relative inhibition vs. positive control” value stood at 75%.

For the compound `COc1ccc(NCCCS(=O)(=O)N2CCCC2C(C)c2ccc(F)c(OCC3CC3)c2)c(=O)[nH]1` (stereo not drawn) [Example 80, 3-((3-((2-(1-(3-(cyclopropylmethoxy)-4-fluorophenyl)ethyl)pyrrolidin-1-yl)sulfonyl)propyl)amino)-6-methoxypyridin-2(1H)-one], the “% relative inhibition vs. positive control” value in assay [3] stood at 22%.

A word on the IC50: it is the concentration at which inhibition is half-maximal.
